What was measured:
D(2) dopamine receptor = D(2) dopamine receptor (Rattus norvegicus, UniProt P61169); test: In vitro binding affinity against Dopamine receptor D2 in rat striatum membrane using [3H]raclopride as radioligand; assay type: cell membranes
[1] = biological target: T1, Adrenergic receptor alpha-1 (Rattus norvegicus, UniProt P15823+P23944+P43140); test: In vitro binding affinity against Alpha-1 adrenergic receptor in rat cerebral cortex membrane using [3H]prazosin as radioligand; assay type: cell membranes
T1 sequence (P15823 whole entry): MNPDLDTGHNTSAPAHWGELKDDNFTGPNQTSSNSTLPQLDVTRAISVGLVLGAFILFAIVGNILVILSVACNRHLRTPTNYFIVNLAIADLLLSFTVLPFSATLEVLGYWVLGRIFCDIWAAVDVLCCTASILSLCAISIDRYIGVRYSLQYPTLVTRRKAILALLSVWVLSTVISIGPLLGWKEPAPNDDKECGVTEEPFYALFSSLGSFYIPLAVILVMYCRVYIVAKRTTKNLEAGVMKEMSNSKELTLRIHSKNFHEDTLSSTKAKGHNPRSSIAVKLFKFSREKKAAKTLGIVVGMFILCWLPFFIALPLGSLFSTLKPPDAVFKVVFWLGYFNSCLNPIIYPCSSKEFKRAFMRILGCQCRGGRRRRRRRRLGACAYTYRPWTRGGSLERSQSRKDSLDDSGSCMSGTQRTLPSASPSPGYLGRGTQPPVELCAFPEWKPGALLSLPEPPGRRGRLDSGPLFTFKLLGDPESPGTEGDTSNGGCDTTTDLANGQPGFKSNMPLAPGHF
T1 sequence (P23944 whole entry): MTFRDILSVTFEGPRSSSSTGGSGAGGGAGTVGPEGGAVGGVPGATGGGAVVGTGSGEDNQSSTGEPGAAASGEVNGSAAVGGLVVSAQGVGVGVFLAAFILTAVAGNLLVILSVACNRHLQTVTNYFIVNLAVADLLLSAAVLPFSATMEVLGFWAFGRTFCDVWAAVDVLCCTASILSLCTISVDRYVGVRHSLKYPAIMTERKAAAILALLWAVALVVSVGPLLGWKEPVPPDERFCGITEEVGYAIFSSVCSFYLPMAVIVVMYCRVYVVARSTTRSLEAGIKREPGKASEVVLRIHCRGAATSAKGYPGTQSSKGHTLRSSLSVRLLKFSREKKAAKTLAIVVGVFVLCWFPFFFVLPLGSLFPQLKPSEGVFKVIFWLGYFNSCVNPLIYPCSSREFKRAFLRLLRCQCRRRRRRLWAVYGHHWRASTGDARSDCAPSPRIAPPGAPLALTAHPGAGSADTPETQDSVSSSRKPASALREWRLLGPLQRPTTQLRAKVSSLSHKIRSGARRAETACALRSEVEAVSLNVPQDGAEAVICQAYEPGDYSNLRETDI
T1 sequence (P43140 whole entry): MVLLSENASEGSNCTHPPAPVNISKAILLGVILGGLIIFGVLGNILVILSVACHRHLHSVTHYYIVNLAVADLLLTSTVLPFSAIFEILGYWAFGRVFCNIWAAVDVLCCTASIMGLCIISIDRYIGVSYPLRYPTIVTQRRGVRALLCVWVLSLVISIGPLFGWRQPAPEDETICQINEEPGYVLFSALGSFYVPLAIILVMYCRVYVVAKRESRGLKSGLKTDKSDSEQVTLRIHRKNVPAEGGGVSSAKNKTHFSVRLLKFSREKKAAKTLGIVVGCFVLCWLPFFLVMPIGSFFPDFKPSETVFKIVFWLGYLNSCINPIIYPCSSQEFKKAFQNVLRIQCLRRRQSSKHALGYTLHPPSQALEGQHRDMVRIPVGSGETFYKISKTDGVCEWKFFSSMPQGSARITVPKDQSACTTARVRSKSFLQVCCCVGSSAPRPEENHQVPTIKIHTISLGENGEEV

[2] = biological target: T2, 5-hydroxytryptamine receptor 1A (Rattus norvegicus, UniProt P19327); test: In vitro binding affinity against serotonin 5-HT1A receptor in rat cerebral cortex membrane using [3H]8-OH-DPAT as radioligand; assay type: cell membranes
T2 sequence (P19327 whole entry): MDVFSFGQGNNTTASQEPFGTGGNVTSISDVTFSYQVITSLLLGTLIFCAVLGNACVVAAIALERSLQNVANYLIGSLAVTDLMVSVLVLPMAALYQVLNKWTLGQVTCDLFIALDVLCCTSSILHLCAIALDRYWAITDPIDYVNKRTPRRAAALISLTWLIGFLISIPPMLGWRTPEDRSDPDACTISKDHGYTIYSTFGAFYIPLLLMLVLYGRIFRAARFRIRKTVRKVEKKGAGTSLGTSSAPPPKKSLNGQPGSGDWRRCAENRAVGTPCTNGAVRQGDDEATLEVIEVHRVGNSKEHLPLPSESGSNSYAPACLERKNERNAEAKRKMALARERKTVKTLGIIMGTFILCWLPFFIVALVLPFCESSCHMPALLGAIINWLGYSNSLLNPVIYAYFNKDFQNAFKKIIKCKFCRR

Rattus norvegicus = species: Rattus norvegicus; test: Compound was evaluated for its ability to affect adenylyl cyclase activity in rat hippocampus slice preparation; agonist; assay type: functional; details: filed as agonist
[3] = biological target: T1, Adrenergic receptor alpha-1; test: Antagonistic activity (pA2) at Alpha-1 adrenergic receptor in ring segments of rat thoracic aorta contracted by phenylephrine; assay type: functional, tissue-based

Sequence of D(2) dopamine receptor (P61169 whole entry): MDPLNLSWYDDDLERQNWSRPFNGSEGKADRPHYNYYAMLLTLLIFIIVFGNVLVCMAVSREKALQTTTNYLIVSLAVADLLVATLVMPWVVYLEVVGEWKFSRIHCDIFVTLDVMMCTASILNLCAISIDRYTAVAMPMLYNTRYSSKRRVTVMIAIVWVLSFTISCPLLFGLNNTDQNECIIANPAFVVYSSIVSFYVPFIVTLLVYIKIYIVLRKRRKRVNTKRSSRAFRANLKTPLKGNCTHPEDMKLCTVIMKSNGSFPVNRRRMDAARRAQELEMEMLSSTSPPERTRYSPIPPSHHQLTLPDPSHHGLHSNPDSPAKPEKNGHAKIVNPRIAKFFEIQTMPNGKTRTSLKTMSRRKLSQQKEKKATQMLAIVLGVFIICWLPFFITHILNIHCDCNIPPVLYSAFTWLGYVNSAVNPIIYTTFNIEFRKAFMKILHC

SMILES | Ki (D(2) dopamine receptor) [nM] | Ki [1] [nM] | Ki [2] [nM] | Activity (Rattus norvegicus) | pA2 [3]
O=C1CC(=C(c2ccccc2)c2ccccc2)C(=O)N1CCCCN1CCN(c2cccc(Cl)c2)CC1 | 367 | 16.4 | 39.3 | – | –
COc1ccccc1N1CCN(CCCCN2C(=O)CC(=C(c3ccccc3)c3ccccc3)C2=O)CC1 | > 1000 | 14.4 | 13.4 | – | –
O=C1CC(=C(c2ccccc2)c2ccccc2)C(=O)N1CCN1CCN(c2ccc(F)cc2)CC1 | > 1000 | 529 | > 1000 | – | –
O=C1CC(=C(c2ccccc2)c2ccccc2)C(=O)N1CN1CCN(c2ccc(F)cc2)CC1 | > 1000 | 746 | > 1000 | – | –
O=C1CC(=C(c2ccccc2)c2ccccc2)C(=O)N1CN1CCN(c2cccc(C(F)(F)F)c2)CC1 | > 1000 | > 1000 | 59.6 | Agonist | –
COc1ccccc1N1CCN(CCCN2C(=O)CC(=C(c3ccccc3)c3ccccc3)C2=O)CC1 | 156 | 8.1 | 665 | – | –
O=C1CC(=C(c2ccccc2)c2ccccc2)C(=O)N1CCN1CCN(c2cccc(Cl)c2)CC1 | > 1000 | > 1000 | > 1000 | – | –
O=C1CC(=C(c2ccccc2)c2ccccc2)C(=O)N1CCCN1CCN(c2cccc(Cl)c2)CC1 | 801 | 39.2 | 127 | – | –
O=C1CC(=C(c2ccccc2)c2ccccc2)C(=O)N1CCCCN1CCN(c2ccc(F)cc2)CC1 | 351 | 51.8 | 3.3 | Agonist | –
O=C1CC(=C(c2ccccc2)c2ccccc2)C(=O)N1CCN1CCN(c2ccccc2)CC1 | > 1000 | 214 | > 1000 | – | –
O=C1CC(=C(c2ccccc2)c2ccccc2)C(=O)N1CCCN1CCN(c2ccccc2)CC1 | > 1000 | 5.7 | > 1000 | – | 7.79
O=C1CC(=C(c2ccccc2)c2ccccc2)C(=O)N1CCCCN1CCN(c2ccccc2)CC1 | > 1000 | 6.4 | 125 | – | –
O=C1CC(=C(c2ccccc2)c2ccccc2)C(=O)N1CN1CCN(c2ccccc2)CC1 | > 1000 | > 1000 | 98 | – | –
O=C1CC(=C(c2ccccc2)c2ccccc2)C(=O)N1CN1CCN(c2cccc(Cl)c2)CC1 | > 1000 | 392 | 49.4 | – | –
COc1ccccc1N1CCN(CN2C(=O)CC(=C(c3ccccc3)c3ccccc3)C2=O)CC1 | > 1000 | > 1000 | 93.8 | – | –
O=C1CC(=C(c2ccccc2)c2ccccc2)C(=O)N1CCCCN1CCN(c2cccc(C(F)(F)F)c2)CC1 | 689 | 60.5 | 15.8 | – | –
O=C1CC(=C(c2ccccc2)c2ccccc2)C(=O)N1CCN1CCN(c2cccc(C(F)(F)F)c2)CC1 | > 1000 | > 1000 | > 1000 | – | –
COc1ccccc1N1CCN(CCN2C(=O)CC(=C(c3ccccc3)c3ccccc3)C2=O)CC1 | 167 | 71.5 | 286 | – | –
O=C1CC(=C(c2ccccc2)c2ccccc2)C(=O)N1CCCN1CCN(c2cccc(C(F)(F)F)c2)CC1 | > 1000 | 62.7 | > 1000 | – | –
O=C1CC(=C(c2ccccc2)c2ccccc2)C(=O)N1CCCN1CCN(c2ccc(F)cc2)CC1 | > 1000 | 8.3 | > 1000 | – | 8.63

Source: ChEMBL document CHEMBL1131313, “1-[omega-(4-arylpiperazin-1-yl)alkyl]-3-diphenylmethylene-2,5- pyrrolidinediones as 5-HT1A receptor ligands: study of the steric requirements of the terminal amide fragment on 5-HT1A affinity/selectivity” (Bioorg Med Chem Lett, 1998)
